Laboratory results taken from patent publication US10961258B2, “Heterocyclic amides as kinase inhibitors” (GLAXOSMITHKLINE INTELLECTUAL PROPERTY DEVELOPMENT LIMITED, priority 2015, dated 2021).

What was measured:
GST-RipK1(1-375) = biological target: T1, GST-RipK1(1-375) (Homo sapiens, UniProt Q13546); assay: Fluorescent polarization based binding assay at the ATP binding pocket of RIP1; conditions: FP competition with fluorescently labeled ATP competitive ligand 5 nM; GST-RipK1(1-375) 10 nM; mean of minimum 2 experiments
T1 construct: GST-RipK1 Preparation: His.GST.TEV.RIPK1 1-375; His (N); TEV cleavage site (N); made in house; host or cells: Spodoptera frugiperda (Sf9) insect cells, baculovirus
T1 sequence (Q13546 1-375): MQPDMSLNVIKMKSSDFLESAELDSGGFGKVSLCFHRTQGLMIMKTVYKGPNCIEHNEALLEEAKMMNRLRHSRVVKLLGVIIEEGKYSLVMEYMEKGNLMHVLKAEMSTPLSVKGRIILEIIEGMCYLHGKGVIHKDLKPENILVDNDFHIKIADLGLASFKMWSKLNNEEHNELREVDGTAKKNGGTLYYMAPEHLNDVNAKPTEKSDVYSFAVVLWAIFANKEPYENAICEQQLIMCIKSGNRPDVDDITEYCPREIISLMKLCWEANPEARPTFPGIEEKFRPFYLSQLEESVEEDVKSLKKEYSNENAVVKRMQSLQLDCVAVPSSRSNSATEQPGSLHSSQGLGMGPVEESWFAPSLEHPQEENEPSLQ
Method: A fluorescent polarization based binding assay was developed to quantitate
interaction of novel test compounds at the ATP binding pocket of RIP 1, by competition with a fluorescently labeled ATP competitive ligand. GST-RipK1(1-375) was purified from a Baculovirus expression system and was used at a final assay concentration of 10 nM. A fluorescent labeled ligand (14-(2-{[3-({2-{[4-(cyanomethyl)phenyl]amino}-6-[(5-20 cyclopropyl-1H-pyrazol-3-yl)amino]-4-pyrimidinyl}amino)propyl]amino}-2-oxoethyl)16,16,18,18-tetramethyl-6,7,7a,8a,9,10,16,18-octahydrobenzo[2″,3″ ]indolizino[8″,7″:5′,6′]pyrano[3′,2′:3,4]pyrido[1,2-a]indol-5-ium-2-sulfonate (prepared as described in WO2014125444, the disclosure of which is incorporated by reference herein) was used at a final assay concentration of 5 nM. Both the enzyme and ligand were prepared in solutions in 50 mM HEPES pH7.5, 10 mM 25 NaCl, 50 mM MgCl2, 0.5 mM DTT, and 0.02% CHAPS. Test compounds were prepared in neat DMSO and 100 nL was dispensed to individual wells of a multiwell plate. Next, 5 ul GST-RipK1(1-375) was added to the test compounds at twice the final assay concentration, and incubated at room temperature for 10 minutes. Following the incubation, 5 ul of the fluorescent labeled ligand solution, was added to each reaction, at twice the final assay concentration, and incubated at room temperature for at least 15 minutes. Finally, samples were read on an instrument capable of measuring fluorescent polarization. Test compound inhibition was expressed as percent (%) inhibition of internal assay controls. For concentration response experiments, normalized data were fit and pIC50s determined using conventional techniques. The pIC50s are averaged to determine a mean value, for a minimum of 2 experiments.
The RIPK 1 gene [receptor (TNFRSF)-interacting serine-threonine kinase 1] was cloned from human adrenal gland cDNA. Primers were designed from the reference sequence NM_003804.3 with an added CACC Kozak directional tag for cloning into pENTR/TEV/D-TOPO. Gateway® LR cloning was used to site-specifically recombine RIPK1 downstream to an N-terminal HisGST contained within the destination vector pDEST8-His.GST according to the protocol described by Invitrogen.

[1] = system: human monocytic leukemia U937 cells; assay: U937 necroptosis assay (TNFα + QVD, Cell Titer-Glo viability); assay type: cell-based; conditions: U-937, QVD 50 uM, TNFα 100 ng/ml overnight, cellular ATP by Cell Titer-Glo
Method: The efficacy of RIP1 inhibitors can be tested […] in vitro using a human monocytic leukemia U937 cells in a necroptosis assay (He, S. et al. 2009. Cell 137(6): 1100-1111). Cells were maintained in RPMI supplemented with 10% fetal bovine serum 100 U/ml penicillin, 100 ug/ml streptomycin. For the assay, cells were suspended at 5e5 cells/ml in phenol red free RPMI supplemented with 1% fetal bovine serum, 100 U/ml penicillin, 100 ug/ml streptomycin. Thirty-five (35) ul of the cell suspension was aliquotted into a white, half area assay plate. Five (5) ul each of QVD (final concentration 50 uM) or compound was added to the cells and incubated at 37° C. for 30 min to 1 h. Following the incubation, 5 ul TNFα (final concentration 100 ng/ml) was added to the cells and the samples were incubated overnight. The next day, cellular levels of ATP was determined using the Cell Titer-Glo Luminescent Cell Viability kit (available from Promega Corporation, Madison, Wis., USA). Viability was measured by quantitating cellular levels of ATP using the Cell Titer-Glo kit. All data are shown as means±standard deviation of the mean.

## Cc1nsc2c1N(C)C(=O)[C@@H](NC(=O)c1nnc(Cc3ccccc3)[nH]1)CN2 [Example 7, (S)-5-Benzyl-N-(3,4-dimethyl-5-oxo-5,6,7,8-tetrahydro-4H-isothiazolo[4,5-b][1,4]diazepin-6-yl)-4H-1,2,4-triazole-3-carboxamide]
GST-RipK1(1-375)
  IC50: 20 nM
[1]
  IC50: 15.8 nM

## Cn1ccc2c1CCC(NC(=O)c1nnc(Cc3ccccc3)[nH]1)C(=O)N2 (stereo not shown) [Example 4, 5-Benzyl-N-(1-methyl-5-oxo-1,4,5,6,7,8-hexahydropyrrolo[3,2-b]azepin-6-yl)-4H-1,2,4-triazole-3-carboxamide]
GST-RipK1(1-375)
  IC50: 794 nM
[1]
  IC50: 1260 nM

## Cc1cn(C)c2c1NC(=O)C(NC(=O)c1nnc(Cc3ccccc3)[nH]1)CC2 (stereo not shown) [Example 5, 5-Benzyl-N-(1,3-dimethyl-5-oxo-1,4,5,6,7,8-hexahydropyrrolo[3,2-b]azepin-6-yl)-4H-1,2,4-triazole-3-carboxamide]
GST-RipK1(1-375)
  IC50: 631 nM
[1]
  IC50: > 10000 nM

## Cc1sc(C)c2c1CCC(NC(=O)c1nnc(Cc3ccccc3)[nH]1)C(=O)N2 (stereo not shown) [Example 1, 5-Benzyl-N-(6,8-dimethyl-2-oxo-2,3,4,5-tetra hydro-1H-thieno[3,4-b]azepin-3-yl)-4H-1,2,4-triazole-3-carboxamide]
GST-RipK1(1-375)
  IC50: 100 nM
[1]
  IC50: 398 nM

## O=C(NC1CCc2[nH]c3ccccc3c2NC1=O)c1nnc(Cc2ccccc2)[nH]1 (stereo not shown) [Example 6, 5-Benzyl-N-(2-oxo-1,2,3,4,5,6-hexahydroazepino[3,2-b]indol-3-yl)-4H-1,2,4-triazole-3-carboxamide]
GST-RipK1(1-375)
  IC50: 39.8 nM
[1]
  IC50: 251 nM

## O=C(N[C@H]1CSc2cccn2NC1=O)c1nnc(Cc2ccccc2)[nH]1 [Example 8, (R)-5-Benzyl-N-(4-oxo-2,3,4,5-tetrahydropyrrolo[2,1-b][1,3,4]thiadiazepin-3-yl)-4H-1,2,4-triazole-3-carboxamide]
GST-RipK1(1-375)
  IC50: 25.1 nM
[1]
  IC50: 79.4 nM

## O=C(NC1CCc2sccc2NC1=O)c1nnc(Cc2ccccc2)[nH]1 (stereo not shown) [Example 2, 5-Benzyl-N-(5-oxo-5,6,7,8-tetrahydro-4H-thieno[3,2-b]azepin-6-yl)-4H-1,2,4-triazole-3-carboxamide]
GST-RipK1(1-375)
  IC50: 251 nM
[1]
  IC50: 794 nM

## O=C(NC1CCc2oc3c(c2NC1=O)CCCC3)c1nnc(Cc2ccccc2)[nH]1 (stereo not shown) [Example 10, 5-benzyl-N-(2-oxo-2,3,4,5,7,8,9,10-octahydro-1H-benzofuro[3,2-b]azepin-3-yl)-4H-1,2,4-triazole-3-carboxamide]
GST-RipK1(1-375)
  IC50: 794 nM

## CN1C(=O)[C@@H](NC(=O)c2nnc(Cc3ccccc3)[nH]2)CSc2cccn21 [Example 9, (R)-5-Benzyl-N-(5-methyl-4-oxo-2,3,4,5-tetrahydropyrrolo[2,1-b][1,3,4]thiadiazepin-3-yl)-4H-1,2,4-triazole-3-carboxamide]
GST-RipK1(1-375)
  IC50: 10 nM
[1]
  IC50: 5.01 nM

## Cc1cc2c(s1)CCC(NC(=O)c1nnc(Cc3ccccc3)[nH]1)C(=O)N2 (stereo not shown) [Example 3, 5-Benzyl-N-(2-methyl-5-oxo-5,6,7,8-tetrahydro-4H-thieno[3,2-b]azepin-6-yl)-4H-1,2,4-triazole-3-carboxamide]
GST-RipK1(1-375)
  IC50: 79.4 nM
[1]
  IC50: 631 nM
